# Source: paper PMC5193077, “An Allosteric Potentiator of the Dopamine D1 Receptor Increases Locomotor Activity in Human D1 Knock-In Mice without Causing Stereotypy or Tachyphylaxis” (The Journal of Pharmacology and Experimental Therapeutics, 2017)
# Where “and” joins values, the source holds several entries; their conditions need not be identical. Identical values can stand only once. Entries after “also recorded” stand apart in the source; their conditions may differ. Like-named read-outs stand apart in the source and are kept apart here.
# Tests used:
# [1] = biological target: T1, human D1 receptor (Homo sapiens, UniProt P21728); experiment: cAMP response in HEK293 cells stably expressing the human D1 receptor; format: cell-based; settings: for EC50: hD1 HEK293
# T1 sequence (P21728 whole entry): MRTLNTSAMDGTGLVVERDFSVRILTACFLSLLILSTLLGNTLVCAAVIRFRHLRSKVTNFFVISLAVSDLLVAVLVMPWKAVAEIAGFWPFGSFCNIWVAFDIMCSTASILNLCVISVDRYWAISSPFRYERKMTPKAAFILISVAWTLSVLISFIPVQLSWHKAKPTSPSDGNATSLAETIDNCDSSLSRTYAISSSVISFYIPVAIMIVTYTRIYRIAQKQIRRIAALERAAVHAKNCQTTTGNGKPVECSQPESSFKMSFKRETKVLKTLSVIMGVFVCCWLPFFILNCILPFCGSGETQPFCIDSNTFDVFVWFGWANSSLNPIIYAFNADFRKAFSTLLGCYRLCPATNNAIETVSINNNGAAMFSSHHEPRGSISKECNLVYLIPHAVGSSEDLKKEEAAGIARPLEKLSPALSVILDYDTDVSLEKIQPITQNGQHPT
# [2] = biological target: T2, rat D1 receptor (Rattus norvegicus, UniProt P18901); experiment: cAMP response in rD1 HEK293 cells; format: cell-based
# T2 construct: expressed in transfected cells
# T2 sequence (P18901 whole entry): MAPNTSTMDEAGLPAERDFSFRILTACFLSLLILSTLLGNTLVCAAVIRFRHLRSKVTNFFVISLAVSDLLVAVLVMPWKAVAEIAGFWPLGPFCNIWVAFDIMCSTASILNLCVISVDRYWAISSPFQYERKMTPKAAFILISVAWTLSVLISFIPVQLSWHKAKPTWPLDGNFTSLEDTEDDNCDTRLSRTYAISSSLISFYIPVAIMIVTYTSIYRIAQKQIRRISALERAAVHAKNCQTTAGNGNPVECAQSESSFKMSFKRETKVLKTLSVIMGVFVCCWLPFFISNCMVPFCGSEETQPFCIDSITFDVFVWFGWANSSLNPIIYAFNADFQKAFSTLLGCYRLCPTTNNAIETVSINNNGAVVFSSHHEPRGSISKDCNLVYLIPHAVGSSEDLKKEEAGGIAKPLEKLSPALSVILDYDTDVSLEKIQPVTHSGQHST
# [3] = biological target: dog D1 receptor (Canis lupus familiaris, UniProt A0A8I3RQT9); experiment: cAMP potentiation, transiently expressed dog D1 receptor in HEK293 cells; format: cell-based; settings: Dog D1, transient
# dog D1 receptor, sequence (A0A8I3RQT9 1-446): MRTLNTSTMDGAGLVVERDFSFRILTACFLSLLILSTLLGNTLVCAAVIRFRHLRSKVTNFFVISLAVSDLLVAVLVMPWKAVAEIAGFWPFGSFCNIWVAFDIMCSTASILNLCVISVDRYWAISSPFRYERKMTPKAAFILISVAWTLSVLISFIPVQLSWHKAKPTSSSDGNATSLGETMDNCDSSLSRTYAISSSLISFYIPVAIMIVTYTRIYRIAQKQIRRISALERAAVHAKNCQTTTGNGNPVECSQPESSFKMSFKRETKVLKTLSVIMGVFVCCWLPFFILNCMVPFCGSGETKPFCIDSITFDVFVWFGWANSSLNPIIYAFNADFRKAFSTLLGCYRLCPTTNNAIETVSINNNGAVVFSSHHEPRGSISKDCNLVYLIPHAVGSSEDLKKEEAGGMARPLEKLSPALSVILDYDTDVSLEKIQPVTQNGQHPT
# Protocol: The human, rhesus monkey, dog, or mouse D1 receptor was cloned into the Jump-In vector system (Life Technologies, Austin, TX) and transiently transfected into HEK293 cells using Fugene HD (Promega, Madison, WI). After 2 days of growth in DMEM medium containing 10% FBS, 10 mM HEPES, and 100 µg/ml ampicillin at 37°C in 5% CO2, the cells were harvested with TrypLE Express (GIBCO), resuspended in FBS containing 8% DMSO, and stored in 1-ml aliquots (10 × 10^6 cells/ml) at −70°C. The cAMP accumulation was measured as described for hD1 except that 6000 to 10,000 cells per well were used and the EC20 concentration of dopamine used was 0.7 nM (final).
# [4] = biological target: T3, mouse D1 receptor (Mus musculus, UniProt Q61616); experiment: cAMP potentiation, transiently expressed mouse D1 receptor in HEK293 cells; format: cell-based
# T3 construct: expressed in transfected cells; host or cells: HEK293, transient (Fugene HD)
# T3 sequence (Q61616 whole entry): as the sequence (P18901 whole entry) above, with A11T, A15V, L91F, P93S, T181A, A245T, A254S, V370M, K403R, A410P counted along it
# [5] = biological target: D2 receptor (Homo sapiens, UniProt P14416); experiment: D2 cAMP assay (DiscoveRx); format: cell-based; settings: potentiator, agonist and antagonist mode, up to 10 µM
# D2 receptor, sequence (P14416 whole entry): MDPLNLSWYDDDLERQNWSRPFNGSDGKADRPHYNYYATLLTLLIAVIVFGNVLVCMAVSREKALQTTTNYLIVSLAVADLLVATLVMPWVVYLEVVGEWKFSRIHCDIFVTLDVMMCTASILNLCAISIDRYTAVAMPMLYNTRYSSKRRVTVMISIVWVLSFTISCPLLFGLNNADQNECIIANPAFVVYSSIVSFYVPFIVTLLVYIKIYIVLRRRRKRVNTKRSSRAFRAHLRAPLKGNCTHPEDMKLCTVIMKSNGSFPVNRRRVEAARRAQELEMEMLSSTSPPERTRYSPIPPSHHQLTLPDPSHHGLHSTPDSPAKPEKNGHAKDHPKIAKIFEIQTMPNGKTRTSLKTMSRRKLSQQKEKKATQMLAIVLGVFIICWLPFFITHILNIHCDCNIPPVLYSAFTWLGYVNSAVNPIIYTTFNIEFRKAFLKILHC
# Protocol: (§1) The D2, β1, β2, β3, and 5HT6 cAMP assays were performed at DiscoveRx using the protocols described on their website (www.discoverx.com).
# [6] = biological target: β2 receptor (Homo sapiens, UniProt P07550); experiment: β2 cAMP assay (DiscoveRx); format: cell-based; settings: potentiator, agonist and antagonist mode, up to 10 µM
# β2 receptor, sequence (P07550 whole entry): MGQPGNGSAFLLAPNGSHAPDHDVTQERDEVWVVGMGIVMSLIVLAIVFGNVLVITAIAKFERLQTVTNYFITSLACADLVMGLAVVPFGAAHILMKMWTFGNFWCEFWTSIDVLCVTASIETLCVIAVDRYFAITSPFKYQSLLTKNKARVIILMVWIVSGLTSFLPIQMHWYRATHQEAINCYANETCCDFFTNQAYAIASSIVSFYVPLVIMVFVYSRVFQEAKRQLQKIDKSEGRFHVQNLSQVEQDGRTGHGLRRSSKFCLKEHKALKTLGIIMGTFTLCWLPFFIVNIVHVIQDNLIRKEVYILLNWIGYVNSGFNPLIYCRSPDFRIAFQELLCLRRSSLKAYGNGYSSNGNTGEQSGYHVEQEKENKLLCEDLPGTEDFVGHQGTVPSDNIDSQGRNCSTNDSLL
# Protocol: as §1
# [7] = biological target: β3 receptor (Homo sapiens, UniProt P13945); experiment: β3 cAMP assay (DiscoveRx); format: cell-based; settings: potentiator, agonist and antagonist mode, up to 10 µM
# β3 receptor, sequence (P13945 whole entry): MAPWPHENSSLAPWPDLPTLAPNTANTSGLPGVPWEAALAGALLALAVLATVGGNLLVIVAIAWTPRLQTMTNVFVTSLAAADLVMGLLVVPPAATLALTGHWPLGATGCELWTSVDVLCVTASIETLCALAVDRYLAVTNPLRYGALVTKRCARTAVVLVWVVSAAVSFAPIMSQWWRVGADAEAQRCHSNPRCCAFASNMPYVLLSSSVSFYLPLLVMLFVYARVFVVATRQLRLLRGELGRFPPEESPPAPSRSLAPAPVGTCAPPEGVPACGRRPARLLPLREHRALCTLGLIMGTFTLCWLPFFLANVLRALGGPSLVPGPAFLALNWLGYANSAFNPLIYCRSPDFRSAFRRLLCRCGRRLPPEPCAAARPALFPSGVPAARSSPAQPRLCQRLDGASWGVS
# Protocol: as §1
# [8] = biological target: 5HT6 receptor (Homo sapiens, UniProt P50406); experiment: 5HT6 cAMP assay (DiscoveRx); format: cell-based; settings: potentiator, agonist and antagonist mode, up to 10 µM
# 5HT6 receptor, sequence (P50406 whole entry): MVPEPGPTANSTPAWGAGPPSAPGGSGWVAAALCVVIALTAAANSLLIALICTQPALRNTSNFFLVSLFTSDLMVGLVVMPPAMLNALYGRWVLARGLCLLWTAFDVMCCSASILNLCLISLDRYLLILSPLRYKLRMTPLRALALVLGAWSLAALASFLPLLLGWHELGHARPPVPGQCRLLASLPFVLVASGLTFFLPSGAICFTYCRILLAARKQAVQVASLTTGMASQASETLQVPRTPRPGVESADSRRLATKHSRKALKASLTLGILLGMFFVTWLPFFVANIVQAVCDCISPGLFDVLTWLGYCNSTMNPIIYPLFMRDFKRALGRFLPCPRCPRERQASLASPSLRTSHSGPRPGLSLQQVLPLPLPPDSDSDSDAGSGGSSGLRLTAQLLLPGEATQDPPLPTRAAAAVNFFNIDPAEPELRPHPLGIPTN
# Protocol: as §1
# [9] = biological target: 5HT2B receptor (Homo sapiens, UniProt P41595); experiment: Standard Lilly selectivity panel, 5HT2B receptor
# 5HT2B receptor, sequence (P41595 whole entry): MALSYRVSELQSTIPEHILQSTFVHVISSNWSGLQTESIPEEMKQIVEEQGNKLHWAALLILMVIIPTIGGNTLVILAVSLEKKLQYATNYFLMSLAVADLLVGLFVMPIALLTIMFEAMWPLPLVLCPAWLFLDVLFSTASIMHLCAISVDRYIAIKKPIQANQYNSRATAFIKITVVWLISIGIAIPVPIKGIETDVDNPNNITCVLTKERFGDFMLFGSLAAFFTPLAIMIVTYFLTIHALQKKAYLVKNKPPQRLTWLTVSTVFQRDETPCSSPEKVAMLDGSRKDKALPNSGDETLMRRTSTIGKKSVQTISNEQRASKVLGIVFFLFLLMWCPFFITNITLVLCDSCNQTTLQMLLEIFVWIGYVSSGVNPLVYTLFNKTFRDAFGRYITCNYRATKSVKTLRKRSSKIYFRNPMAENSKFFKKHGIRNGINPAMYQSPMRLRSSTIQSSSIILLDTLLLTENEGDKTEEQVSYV
# [10] = system: 10 additional targets from the standard Lilly selectivity panel; experiment: Standard Lilly selectivity panel, additional targets
# [11] = biological target: T1, human D1 receptor; experiment: 3H-SCH23390 binding to human D1 HEK293 cell membranes; settings: 1-100 nM DETQ
# [12] = system: hD1 mice; experiment: Locomotor activity (LMA) in hD1 mice; format: in vivo, mouse
# From the text: Male hD1 mice, 8–10 weeks old (weighing 18 to 25 g at the time of the experiment), were used. Monitoring of mouse LMA took place in transparent plastic shoebox cages having dimensions of 45 × 25 × 20 cm, with a 1-cm depth of wood chips for absorbent bedding, and covered with a ventilated filtered plastic cage top.
# Cages were placed in a rectangular frame containing a grid of 12 photocell beams in an 8 × 4 configuration (Kinder Scientific, Poway, CA) that were positioned 2.5 cm from the floor of the cage for the detection of body movements (ambulations), which were recorded by computer for analysis. Mice were placed inside individual LMA boxes for 1 hour during an acclimation period. Mice were then dosed with test compounds (oral or subcutaneous) and were replaced inside individual LMA boxes for the start of LMA. Photocell activity (total ambulations) was collected for 60 minutes using software from Hamilton Kinder (Poway, CA).
# Calculation of data based on total ambulations was done using Excel (Microsoft, Redmond, WA). Graphing and statistical analysis of data were done using one-way analysis of variance followed by Dunnett’s multiple comparison test using GraphPad Prism.
# [13] = system: hD1 mice; experiment: Video-tracking of horizontal motion, rearing and grooming in hD1 mice; format: in vivo, mouse
# From the text: The apparatus for the video-tracking assessment experiment included 12 custom-built video-tracking observation chambers and the HomeCageScan (CleverSys, Reston, VA) software system. The chambers, measuring (in inches) 8 width × 10 length × 8 height, consisted of two end walls, a back wall, a top, and a floor constructed of ¼-in. translucent white acrylic, and one side (front) constructed of clear acrylic. LED strip lighting was placed below the chamber for illumination. A color video camera (640 × 480, 30 frames per second) was placed in front of each chamber to record behavior from a side view. The chambers were located in large sound-attenuating chambers to reduce ambient room noise and isolate lighting. The cameras were connected in groups of four to a quad multiplexer (model NVQC-42N; Nuvico, Englewood, NJ), with each multiplexer connected to its own computer, which then recorded each session to an MPEG file.
# At the end of the experiment the files were batch-analyzed by a computer running the CleverSys CageScan video-tracking software. This software can recognize and quantify several different behaviors, including LMA, grooming, rearing, immobility, and feeding behaviors. The current experiment examined behavior in a novel open-field environment rather than home-cage activity, which limited behaviors of interest to LMA, grooming, and rearing.
# For HomeCageScan behavioral phenotyping, male D1 knock-in mice (8–12 weeks, 20–25 g body weight) were placed into the observation chambers for a 60-minute habituation session. […] All behavioral activity was monitored and scored by the HomeCageScan system.
# [14] = system: hD1 mice; set-up: method as in Bruns et al., submitted for publication; settings: reserpine pretreatment; ref Bruns et al., submitted for publication; cited from earlier work
# [15] = biological target: T1, human D1 receptor; experiment: D1 receptor internalization (PathHunter, DiscoveRx)
# [16] = with EC20 dopamine, 0% = EC20 dopamine response, 100% = maximum dopamine response
structure (smiles),measurement,setting,value
"C[C@H]1c2cccc(C(C)(C)O)c2C[C@H](CO)N1C(=O)Cc1c(Cl)cccc1Cl [DETQ, 2-(2,6-dichlorophenyl)-1-((1S,3R)-3-(hydroxymethyl)-5-(2-hydroxypropan-2-yl)-1-methyl-3,4-dihydroisoquinolin-2(1H)-yl)ethan-1-one]",Relative potency (potentiator mode RA divided by agonist mode RA),[1],43 fold and 42.8 fold
same,Maximum overall sensitization to dopamine (α times β),[1]; 20.8 × 1.22,25.4 fold
same,Emax,"[1]; HEK293, human D1, comparison with rat D1, read-out: Maximum response relative to that of dopamine",98.6%
same,Rightward shift of EC50 in the absence of dopamine,[1]; agonist vs potentiator mode,6 fold
same,α-factor (maximum leftward shift of the cAMP response to dopamine),[1]; allosteric Schild plot,21 fold and 20.8 fold and 20.8 ± 1.9 fold
same,Kb,"[1]; dopamine curve-shift, cAMP, read-out: KB (allosteric Schild plot)",26 nM
same,EC50,"[1]; in the presence of an EC20 concentration of dopamine (12 nM), read-out: EC50, cAMP, potentiator mode",5.8 nM and 5.83 nM
same,"Top, cAMP, potentiator mode","[1]; with 12 nM dopamine, % of window between EC20 dopamine and maximum dopamine response",95.2%
same,"RA, cAMP agonist mode",[1]; without dopamine,0.38
same,"Top, cAMP, agonist mode","[1]; without dopamine, % of maximum response to dopamine",11.6%
same,EC50,"[1]; without dopamine, read-out: EC50, cAMP, agonist mode",30.4 nM
same,Loss of functional affinity/potency at rat D1 versus human D1,[2],~30 fold and 28 fold
same,Emax,"[2]; HEK293, rat D1, read-out: Maximum response relative to that of dopamine",39.9%
same,EC50,"[2]; rat D1, 5 nM dopamine (EC20), n = 4, read-out: EC50, cAMP potentiation",162 ± 18 nM
same,Top (%),[3],85.2%
same,EC50,[3]; 0.7 nM dopamine,8.6 nM
same,Loss of potency/affinity at mouse D1 versus human D1,[4],~30 fold
same,Top (%),"[4]; Mouse D1, transient",50.0%
same,EC50,"[4]; Mouse D1, transient, 0.7 nM dopamine",312 nM
same,Activity at D2 receptor,[5],inactive
same,Activity at β2 receptor,[6],inactive
same,Activity at β3 receptor,[7],inactive
same,Activity at 5HT6 receptor,[8],inactive
same,"Stimulation at 5HT2B receptor, potentiator mode",[9]; 1 µM,5%
same,inhibition at 1 µM,"[9]; 1 µM, read-out: Inhibition at 5HT2B receptor, antagonist mode",13%
same,"Stimulation at 5HT2B receptor, potentiator mode",[9]; 10 µM,48%
same,inhibition at 10 µM,"[9]; 10 µM, read-out: Inhibition at 5HT2B receptor, antagonist mode",56%
same,Activity at 10 additional targets of the Lilly selectivity panel,[10],inactive
same,Effect on affinity of dopamine to inhibit SCH23390 binding,[11],increased the affinity of dopamine
same,EC50,"[12]; Mus musculus, four-parameter fit, unbound brain concentration, hD1 mice, read-out: EC50 in LMA versus unbound brain levels",9.2 nM
same,Overt adverse behavioral effects,[12]; any of the doses (up to 240 mg/kg),no overt adverse behavioral effects were observed
same,Bottom of LMA versus unbound brain level curve,[12]; four-parameter fit,40 % of control
same,Top of LMA versus unbound brain level curve,[12]; four-parameter fit,"1,590 % of control"
same,LMA response after twice-daily dosing,"[12]; hD1 mice, 240 mg/kg oral twice daily",No tachyphylaxis
same,LMA response on repeated once-a-day dosing,"[12]; hD1 mice, once daily for 4 days",undiminished on day 4
same,Shape of LMA dose-response curve,"[12]; hD1 mice, DETQ up to 240 mg/kg",did not show any drop-off at higher doses
same,ED4X (dose causing a 4-fold increase in LMA),"[12]; habituated hD1 mice, oral",7.2 mg/kg
same,Grooming (index of stereotyped behavior),[13],only modest changes that did not reach statistical significance
same,Horizontal locomotion and rearing,[13],this increase was maintained up to the highest dose tested
same,Response in hD1 mice depleted of dopamine by reserpine,[14],did not reverse hypokinesia; also recorded: absent
same,Pathway Preference cAMP/Internalization,[15]; RA for cAMP divided by RA for internalization,13.1
same,Relative Preference DETQ/A-77636,[15]; pathway preference of DETQ divided by that of A-77636,2.0 ± 1.4 and 1.97
same,"RA, Internalization","[15]; top divided by EC50, with 407 nM dopamine",1.25
same,"Bottom, D1 receptor internalization",[15]; [16],5.0%
same,"Top, D1 receptor internalization",[15]; [16],55.8%
